Measurements taken from patent US20250090539A1, “COMBINATION TREATMENT OF CANCERS” (Repare Therapeutics Inc., priority 2023, published 2025).
Where a name gives a salt, the structure may show the parent alone. Read-outs that look alike come from different tables or passages of the source.

Columns and labels:
[1] = humans, cited from earlier work
[2] = tested on: SUM149PT breast cancer cell line; test: CellTiter Glo cell viability / ZIP synergy in BRCA1mut model; assay type: cell-based; conditions: single agent at the same low nM doses
Procedure: FIGS. 2A-2B are charts showing the ZIP synergy score matrix in a BRCA1mut model treated with gemcitabine at low-nanomolar concentrations (15 nM) synergizing with camonsertib 7.5 nM (2 days on (FIG. 2A) or 3 days on (FIG. 2B)). ZIP synergy scores greater than 10 indicate drug synergy and scores less than −10 indicates antagonism. Mean CTG cell viability data from 3 independent experiments were processed with SynergyFinder (https://synergyfinder.fimm.fi/; PMIDs: 35580060, 26949479). Dotted lines indicated doses exerting maximum synergy.
FIGS. 3A-3B show the synergy of gemcitabine with camonsertib in a BRCA1 mut model. […] FIG. 3B is a graph of the viability of the SUM149PT treated with the indicated compounds and schedules. Data (circles) from three independent experiments is provided with mean (bars)±SD. The P value calculated with an unpaired two-tailed Student's t-test. Cell viability was read out at day 8 with a CellTiter Glo (CTG) assay.
To assess the synergy between camonsertib and gemcitabine in a BRCA1-mutated cancer cell model in vitro, a SUM149PT breast cancer cell line was employed. The combination was administered at various dosing schedules—1, 2, or 3 day treatment with camonsertib combined with a single 4 h dose of gemcitabine (FIG. 3A).

[3] = tested on: SUM149PT BRCA1 mutated xenograft; assay type: in vivo; conditions: single agents at low doses: camonsertib 10 mg/kg PO 3 days on/4 days off; gemcitabine 20 mg/kg QW; 28 days
Procedure: The relative tumor xenograft volume (FIG. 4A) and change in body weight in mice treated (FIG. 4B) is shown for mice treated with gemcitabine at 20 mg/kg QW on Day 1 and/or camonsertib at 10 mg/kg PO on different schedules weekly for 28 days. Results are expressed as mean±SEM, N=7/group in female NOD-SCID mice. Statistical differences were established by Student's T-test (GraphPad Prism v9) with Welch's correction; ns=not significant, *p<0.05, **p<0.01.
A xenograft model was employed to assess the effect of camonsertib in combination with gemcitabine on tumor formation in an animal model. Mice harboring established tumors were treated with a vehicle control, camonsertib (10 mg/kg once per day with 3 days on/4 days off), gemcitabine (20 mg/kg once per week), or a combination of both camonsertib (once per day selected from 3 days on/4 days off, 2 days on/5 days off, or 1 day on/6 days off) and gemcitabine (once per week) for 28 days.
Relative tumor xenograft volume of the mice treated with gemcitabine at 20 mg/kg QW on Day 1 and/or camonsertib at 10 mg/kg PO on different schedules weekly for 28 days is shown in FIG. 4A and the change in body weight is shown in FIG. 4B. Results are expressed as mean±SEM, N=7/group in female NOD-SCID mice. Statistical differences were established by Student's T-test (GraphPad Prism v9) with Welch's correction; ns=not significant, *p<0.05, **p<0.01.

[4] = maximum tolerated dose in mice; assay type: in vivo

SMILES	mean gemcitabine peak plasma concentration ([1]; 800 mg/m^2)	mean gemcitabine peak plasma concentration ([1]; 1000 mg/m^2)	cell viability (CTG, day 8) [2]	anti-tumor activity (relative tumor xenograft volume) [3]	MTD ([4]; mouse, in vivo, read-out: MTD)	MTD [4]
Nc1ccn([C@@H]2O[C@H](CO)[C@@H](O)C2(F)F)c(=O)n1 [gemcitabine, 2-Deoxy-2,2-difluorocytidine hydrochloride]	24 µM	32 µM	only modest effect	reduced activity	100 mg/kg	
C[C@@H]1COCCN1c1cc([C@]2(O)C[C@H]3CC[C@@H](C2)O3)c2cnn(-c3cc[nH]n3)c2n1 [camonsertib, (1R,5S)-3-[6-[(3R)-3-methylmorpholin-4-yl]-1-(1H-pyrazol-5-yl)pyrazolo[3,4-b]pyridin-4-yl]-8-oxabicyclo[3.2.1]octan-3-ol]			only modest effect	reduced activity		30 mg/kg
